Assay [1] concerns the target recombinant human PARP1 (Homo sapiens, UniProt P09874). Nature of the assay: PARP1 fluorescence polarization binding assay. Particulars: GST-tagged PARP1 20 nM, PARP1-FL probe 3 nM. A digest of the protocol: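 GST-tagged human PARP1 (20 nM final) preincubated 30 min at RT with compound (10-point 3-fold series or single concentration). PARP1-FL probe (3 nM final) added, then 4 h at RT. Buffer: 50 mM Tris pH 8.0, 10 mM MgCl2, 150 mM NaCl, 0.001% Triton X-100. FP mP values normalized to controls; IC50 from four-parameter fit.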
Background: Polarisation of emitted light reports the rotation of a fluorescent probe.

Assay [2] has as its target recombinant human PARP2 (Homo sapiens, UniProt Q9UGN5). Briefly: PARP2 fluorescence polarization binding assay. Conditions: read-out: PARP2 % inh at 10 μM.
Assay [3] deals with DLD-1 BRCA2(−/−) colorectal adenocarcinoma cells. Nature of the assay: Cell viability assay (Cell Titer-Glo, 7 days), DLD-1 BRCA2(−/−). Conditions: Homo sapiens, 168 h, DLD-1 BRCA2(−/−) cells. The assay is classed as cell-based. On the technique in general: In ATP-based viability assays light output follows the ATP content of the culture.
Assay [4] relates to DLD-1 wild-type colorectal adenocarcinoma cells. Nature of the assay: Cell viability assay (Cell Titer-Glo, 7 days), DLD-1 wild-type. Particulars: Homo sapiens, 168 h, DLD-1 wild-type cells, read-out: DLD-1 wild-type % inh at 10 μM. The assay is classed as cell-based.
The mark [5] stands for this setting: percent inhibition at 10 μM, fluorescence polarization, GST-tagged PARP2 20 nM, PARP1-FL probe 3 nM.

pIC50: −log10 of the molar value. Counter-ions that a name gives are not always drawn. Like-named read-outs stand apart in the source and are kept apart here.

Chain of recombinant human PARP2 (Q9UGN5 whole entry): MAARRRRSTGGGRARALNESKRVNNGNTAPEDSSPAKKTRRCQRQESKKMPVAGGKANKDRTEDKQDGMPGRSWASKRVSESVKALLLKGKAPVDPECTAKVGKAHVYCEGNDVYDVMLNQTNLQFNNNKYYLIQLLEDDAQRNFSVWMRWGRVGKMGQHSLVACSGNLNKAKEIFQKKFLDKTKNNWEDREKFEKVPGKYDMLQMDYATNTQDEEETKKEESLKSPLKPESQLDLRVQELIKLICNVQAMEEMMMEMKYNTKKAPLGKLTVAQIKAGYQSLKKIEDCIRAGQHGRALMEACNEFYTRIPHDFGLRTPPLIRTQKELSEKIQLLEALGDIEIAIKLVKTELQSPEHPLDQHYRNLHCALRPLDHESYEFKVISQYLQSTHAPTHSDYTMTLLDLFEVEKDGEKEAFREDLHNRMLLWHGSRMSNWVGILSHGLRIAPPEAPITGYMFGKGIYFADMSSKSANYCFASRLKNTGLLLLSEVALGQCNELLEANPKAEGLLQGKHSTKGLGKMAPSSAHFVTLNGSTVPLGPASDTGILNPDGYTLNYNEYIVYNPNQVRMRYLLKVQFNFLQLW
Chain of recombinant human PARP1 (P09874 whole entry): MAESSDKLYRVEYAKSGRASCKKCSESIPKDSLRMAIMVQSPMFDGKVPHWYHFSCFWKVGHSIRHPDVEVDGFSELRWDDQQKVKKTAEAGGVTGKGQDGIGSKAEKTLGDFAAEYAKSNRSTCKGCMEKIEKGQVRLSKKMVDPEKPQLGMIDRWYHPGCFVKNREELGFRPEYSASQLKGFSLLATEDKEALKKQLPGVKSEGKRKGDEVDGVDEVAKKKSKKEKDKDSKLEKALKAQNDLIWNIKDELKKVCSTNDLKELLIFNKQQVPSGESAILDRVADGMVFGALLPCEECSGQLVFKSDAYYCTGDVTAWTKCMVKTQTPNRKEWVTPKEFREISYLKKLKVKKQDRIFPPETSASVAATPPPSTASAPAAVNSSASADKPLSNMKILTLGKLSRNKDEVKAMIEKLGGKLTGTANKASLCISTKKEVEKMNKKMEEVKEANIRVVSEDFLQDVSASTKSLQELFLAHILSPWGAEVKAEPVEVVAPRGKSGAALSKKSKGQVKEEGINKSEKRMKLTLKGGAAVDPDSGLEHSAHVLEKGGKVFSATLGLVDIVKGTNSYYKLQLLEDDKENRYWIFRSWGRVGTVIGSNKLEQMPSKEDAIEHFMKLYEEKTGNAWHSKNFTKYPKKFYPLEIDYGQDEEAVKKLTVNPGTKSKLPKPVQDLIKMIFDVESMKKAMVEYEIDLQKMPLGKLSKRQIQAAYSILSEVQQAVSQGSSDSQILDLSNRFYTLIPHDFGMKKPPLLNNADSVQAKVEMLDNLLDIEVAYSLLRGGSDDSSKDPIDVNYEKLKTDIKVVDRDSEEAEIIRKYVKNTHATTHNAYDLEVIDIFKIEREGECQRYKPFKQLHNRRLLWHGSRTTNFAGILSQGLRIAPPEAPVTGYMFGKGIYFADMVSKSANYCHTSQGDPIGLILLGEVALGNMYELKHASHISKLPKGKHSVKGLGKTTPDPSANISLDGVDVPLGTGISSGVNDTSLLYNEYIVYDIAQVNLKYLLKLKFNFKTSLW

Usually pIC50 stands for the negative decadic logarithm of the IC50, by convention in mol/L. As to `CCNC(=O)Nc1nccc(CN2CCN(c3ccc(C#N)cn3)CC2)c1F` [Compound 268, 1-(4-((4-(5-cyanopyridin-2-yl)piperazin-1-yl)methyl)-3-fluoropyridin-2-yl)-3-ethylurea], the values for the pIC50 in assay [1] and in assay [3] were above 7.00 and above 6.52, respectively. The inhibition at 10 µM in assay [2] (setting [5]) and in assay [4] was below 33% throughout.

Regarding `CCNC(=O)Nc1cc(CN2CCN(c3ccc(NC(C)=O)nc3C)CC2)ccn1` [Compound 269, N-(5-(4-((2-(3-ethylureido)pyridin-4-yl)methyl)piperazin-1-yl)-6-methylpyridin-2-yl)acetamide], the negative logarithm of the IC50 (pIC50) in assay [1] is above 7.00; in assay [3] it was above 6.52. In addition, the inhibition at 10 µM in assay [2] (setting [5]) and in assay [4] was below 33% each time.

As to `CCNC(=O)Nc1cc(CN2CCN(c3ccc(-c4ncc[nH]4)nc3C)CC2)ccn1` [Compound 272, 1-(4-((4-(6-(1H-imidazol-2-yl)-2-methylpyridin-3-yl)piperazin-1-yl)methyl)pyridin-2-yl)-3-ethylurea formate], the pIC50 in assay [1] is above 7.00; in assay [3], above 6.52. In addition, the inhibition at 10 µM in assay [2] and in assay [4] was below 33% throughout.

As to `CCNC(=O)Nc1cc(CN2CCN(c3ccc(C(F)(F)F)cn3)CC2)ccn1` [Compound 273, 1-ethyl-3-(4-((4-(5-(trifluoromethyl)pyridin-2-yl)piperazin-1-yl)methyl)pyridin-2-yl) urea], the pIC50 is above 7.00 in assay [1] and at most 5.52 in assay [3]. The inhibition at 10 µM in assay [2] (setting [5]) and in assay [4] was below 33% throughout.

Consider `[2H]C([2H])([2H])c1nc(C(=O)NC)ccc1N1CCN(Cc2ccnc(NC(=O)NCC)c2)CC1` [Compound 274, 5-(4-((2-(3-ethylureido)pyridin-4-yl)methyl)piperazin-1-yl)-N-methyl-6-(methyl-d3) picolinamide hemiformate], for which the figures for the negative-log IC50 (pIC50) in assay [1] and in assay [3] were above 7.00 and above 6.52, respectively. Further, the inhibition at 10 µM in assay [2] (setting [5]) and in assay [4] was below 33% each time.

Consider `CCNC(=O)Nc1cc(CN2CCN(c3ccc(C#N)cn3)CC2)ncn1` [Compound 275, 1-(6-((4-(5-cyanopyridin-2-yl)piperazin-1-yl)methyl)pyrimidin-4-yl)-3-ethylurea], for which the figures for the pIC50 in assay [1] and in assay [3] were above 7.00 and above 6.52, respectively. The inhibition at 10 µM in assay [2] (setting [5]) and in assay [4] was below 33% throughout.

For `CCNC(=O)Nc1cc(CN2CCN(c3ccc(C#N)cc3F)CC2)ccn1` [Compound 276, 1-(4-((4-(4-cyano-2-fluorophenyl)piperazin-1-yl)methyl)pyridin-2-yl)-3-ethylurea trifluoroacetate], the negative-log IC50 (pIC50) in assay [1] is above 7.00; in assay [3], above 6.52. Also, the inhibition at 10 µM in assay [2] and in assay [4] was below 33% throughout.

Regarding `CCNC(=O)Nc1ncc(CN2CCN(c3ccc(C(=O)NC)nc3C)CC2)n1C` [Compound 277, 5-(4-((2-(3-ethylureido)-1-methyl-1H-imidazol-5-yl)methyl)piperazin-1-yl)-N,6-dimethylpicolinamide], the pIC50 in assay [1] is above 7.00; in assay [3] it was at most 5.52. Also, the inhibition at 10 µM in assay [2] (setting [5]) and in assay [4] was below 33% each time.

Take `CCNC(=O)Nc1ncnc(CN2CCN(c3ccc(C(=O)NC)nc3F)CC2)c1F` [Compound 278, 5-(4-((6-(3-ethylureido)-5-fluoropyrimidin-4-yl)methyl)piperazin-1-yl)-6-fluoro-N-methylpicolinamide]: the results for the negative-log IC50 (pIC50) in assay [1] and in assay [3] were above 7.00 and above 6.52, respectively. The inhibition at 10 µM in assay [2] (setting [5]) and in assay [4] was below 33% in each case.

These data come from patent publication US20240343710A1, “HETEROCYCLIC COMPOUNDS AND METHODS OF USE THEREOF” (1cBio, Inc., priority 2023, published 2024).
